The results in this text go back to ChEMBL document CHEMBL1136686 (Bioorg Med Chem Lett, 2003).

Assay [1] deals with T1, Progesterone receptor (Homo sapiens, UniProt P06401).
T1 sequence (P06401 whole entry): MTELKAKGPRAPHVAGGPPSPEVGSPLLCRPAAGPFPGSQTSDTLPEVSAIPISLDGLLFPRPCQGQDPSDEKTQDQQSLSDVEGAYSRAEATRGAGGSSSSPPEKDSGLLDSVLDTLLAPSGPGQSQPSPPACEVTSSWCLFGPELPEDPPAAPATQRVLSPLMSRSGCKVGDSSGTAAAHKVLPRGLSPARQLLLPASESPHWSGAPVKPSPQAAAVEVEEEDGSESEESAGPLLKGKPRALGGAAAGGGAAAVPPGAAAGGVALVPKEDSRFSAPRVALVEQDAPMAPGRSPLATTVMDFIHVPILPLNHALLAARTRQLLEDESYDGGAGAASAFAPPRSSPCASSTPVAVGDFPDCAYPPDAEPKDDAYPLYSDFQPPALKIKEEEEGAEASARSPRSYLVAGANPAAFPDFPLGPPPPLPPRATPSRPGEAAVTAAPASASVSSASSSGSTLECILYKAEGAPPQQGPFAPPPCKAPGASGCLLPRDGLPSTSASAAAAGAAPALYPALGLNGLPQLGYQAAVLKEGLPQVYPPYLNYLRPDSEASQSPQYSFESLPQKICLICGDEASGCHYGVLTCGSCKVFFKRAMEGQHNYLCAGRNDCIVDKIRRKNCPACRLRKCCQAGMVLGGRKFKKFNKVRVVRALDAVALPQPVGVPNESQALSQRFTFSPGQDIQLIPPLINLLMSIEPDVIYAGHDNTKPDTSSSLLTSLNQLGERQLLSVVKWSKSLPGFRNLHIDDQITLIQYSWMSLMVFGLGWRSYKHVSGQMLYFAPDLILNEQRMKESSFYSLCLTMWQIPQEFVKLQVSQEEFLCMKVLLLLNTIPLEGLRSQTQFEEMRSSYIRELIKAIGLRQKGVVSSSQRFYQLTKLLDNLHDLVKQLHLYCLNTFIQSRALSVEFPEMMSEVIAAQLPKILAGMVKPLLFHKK
The assay is described as follows: Effective concentration on alkaline phosphatase activity in human T47D breast carcinoma cell line. Format: functional, cell-based.

The target of assay [2] is T1, Progesterone receptor. The assay is described as follows: Inhibition of [3H]P4 to progesterone receptor (PR) of human T47D breast carcinoma cells. In kind it is cell-based.
Assay [3] deals with T1, Progesterone receptor. The assay is described as follows: Inhibition of [3H]P4 binding at progesterone receptor of human T47D breast carcinoma cells. In kind it is cell-based.
The target in assay [4] is T2, Progesterone receptor (Rattus norvegicus) (UniProt Q63449).
T2 sequence (whole entry): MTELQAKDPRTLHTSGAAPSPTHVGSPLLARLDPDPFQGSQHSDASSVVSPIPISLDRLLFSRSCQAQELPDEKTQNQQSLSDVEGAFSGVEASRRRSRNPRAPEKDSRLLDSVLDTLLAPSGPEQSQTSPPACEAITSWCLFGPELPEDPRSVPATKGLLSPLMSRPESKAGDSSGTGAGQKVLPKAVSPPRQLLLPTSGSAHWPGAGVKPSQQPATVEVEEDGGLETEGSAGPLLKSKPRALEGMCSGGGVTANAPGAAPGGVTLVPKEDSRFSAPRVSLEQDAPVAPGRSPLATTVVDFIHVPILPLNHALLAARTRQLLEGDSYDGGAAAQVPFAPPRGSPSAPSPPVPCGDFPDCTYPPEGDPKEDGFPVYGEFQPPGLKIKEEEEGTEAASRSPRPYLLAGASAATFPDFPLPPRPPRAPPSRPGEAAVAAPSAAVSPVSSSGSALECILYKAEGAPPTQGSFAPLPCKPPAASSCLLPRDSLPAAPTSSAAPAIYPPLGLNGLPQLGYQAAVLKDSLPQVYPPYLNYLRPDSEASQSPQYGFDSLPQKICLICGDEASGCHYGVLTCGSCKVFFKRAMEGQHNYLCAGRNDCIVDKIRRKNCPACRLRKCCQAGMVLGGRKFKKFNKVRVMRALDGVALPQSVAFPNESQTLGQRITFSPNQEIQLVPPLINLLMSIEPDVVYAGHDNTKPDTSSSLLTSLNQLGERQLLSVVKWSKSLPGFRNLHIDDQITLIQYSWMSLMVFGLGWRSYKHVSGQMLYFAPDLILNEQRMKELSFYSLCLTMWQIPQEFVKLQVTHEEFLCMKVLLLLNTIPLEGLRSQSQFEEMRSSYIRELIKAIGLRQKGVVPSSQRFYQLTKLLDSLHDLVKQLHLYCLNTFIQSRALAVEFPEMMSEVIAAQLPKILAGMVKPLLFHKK
The assay is described as follows: Effective dose on subcutaneous administration in ovariectomized female rat decidualization model. Format: functional, organism-based.

In assay [5] the target is T2, Progesterone receptor (Rattus norvegicus). Kind of assay: Effective dose on oral administration in ovariectomized female rat decidualization model. Format: functional, organism-based.

For `CC1(C)OC(=S)Nc2ccc(-c3cncc(Br)c3)cc21`, a half-maximal response on Progesterone receptor [1] (EC50) required 5.7 nM. As to `CC1(C)OC(=S)Nc2c(Br)cc(-c3cc(F)cc(C#N)c3)cc21`, the midpoint of the response at Progesterone receptor [1], the EC50, lay at 80.1 nM. Same read-out and setting: then `CC1(c2ccccc2)OC(=S)Nc2ccc(-c3cccc(Cl)c3)cc21` (configuration not stated), with 5.7 nM.

Regarding `CC1(C)OC(=S)Nc2ccc(-c3ccccc3F)cc21`, the EC50 – broadly, the midpoint of the concentration-response curve – on Progesterone receptor [1] stood at 11.6 nM.

Regarding `CN1C(=S)OC(C)(C)c2cc(-c3cc(F)cc(Br)c3)ccc21`, the IC50 – broadly, the midpoint of a concentration-inhibition curve – against Progesterone receptor [2] worked out at 100 nM. Moreover, the EC50 on Progesterone receptor [1] is > 10000 nM. At Progesterone receptor [1], `CC1(C)OC(=S)Nc2ccc(-c3ccc(C#N)o3)cc21` showed an EC50 of 1.25 nM. This lies in the single-digit nanomolar range. In turn, `CC1(C)OC(=S)Nc2ccc(-c3ccc(F)c(F)c3)cc21` yielded an EC50 on Progesterone receptor [1] of 11.4 nM. This EC50 is about 9.1-fold higher than that of the compound before.

Turning to `CC1(C)OC(S)=Nc2ccc(-c3cc(Br)cc(C#N)c3)cc21`, the EC50 at Progesterone receptor [1] is > 10000 nM. This compound also displayed a 50% inhibitory concentration (IC50) on Progesterone receptor [3] of 100 nM.

At Progesterone receptor [1], `Cc1cc(C#N)cc(-c2ccc3c(c2)C(C)(C)OC(=S)N3)c1` came in with an EC50 of 200 nM.

Take `CC1(C)OC(=S)Nc2ccc(-c3ccccc3Cl)cc21`: the EC50 on Progesterone receptor [1] was 49.8 nM. Consider `COc1cc(C#N)cc(-c2ccc3c(c2)C(C)(C)OC(=S)N3)c1`, for which the EC50 on Progesterone receptor [1] was > 10000 nM. Moreover, the IC50 on Progesterone receptor [3] was determined as 100 nM. Consider `CCC1(CC)OC(=S)Nc2ccc(-c3cccc(Cl)c3)cc21`, for which the EC50 at Progesterone receptor [1] worked out at 7.2 nM. This counts as single-digit nanomolar.

At Progesterone receptor [1], `CC1(C)OC(=S)Nc2ccc(-c3cc(F)cc(F)c3)cc21` came in with an EC50 of 1.5 nM. Compound `CC1(C)OC(S)=Nc2ccc(-c3cc(F)cc(Cl)c3)cc21` registered a 50% effective concentration (EC50) on Progesterone receptor [1] of 0.9 nM. With `CC1(C)OC(=S)Nc2ccc(-c3cc(Br)cc(OC(F)(F)F)c3)cc21`, the EC50 on Progesterone receptor [1] was > 10000 nM. In addition, the IC50 at Progesterone receptor [3] was 100 nM.

Take `CC1(C)OC(=S)Nc2ccc(-c3cc(F)cc(C(F)(F)F)c3)cc21`: at Progesterone receptor [1], the EC50 was determined as 2.5 nM. The same measure, in the same setting: then `CC1(C)OC(S)=Nc2c(Br)cc(-c3ccc(C#N)c(F)c3)cc21`, with > 10000 nM; and `CC1(C)OC(S)=Nc2c(Br)cc(-c3ccc(Cl)c(F)c3)cc21`, with 1000 nM. As for `CCN1C(=S)OC(C)(C)c2cc(-c3cc(F)cc(C#N)c3)ccc21`, the IC50 at Progesterone receptor [2] is 100 nM. Also, the EC50 on Progesterone receptor [1] is > 10000 nM.

On Progesterone receptor [1], `CC1(C)OC(=S)Nc2ccc(-c3cc(Cl)cc(C#N)c3)cc21` displayed an EC50 of 44.9 nM. Same read-out and setting: next, `CC1(Cc2ccccc2)OC(=S)Nc2ccc(-c3cccc(Cl)c3)cc21` (configuration not stated): 88.5 nM. The same measure, in the same setting: next, `CC1(C)OC(S)=Nc2ccc(-c3cc(C#N)cc(C#N)c3)cc21`: 42 nM; `CCC1(CC)OC(=S)Nc2ccc(-c3cccc([N+](=O)[O-])c3)cc21`: 4.7 nM. Take `CC1(C)OC(S)=Nc2ccc(-c3cc(C#N)cc(OC(F)(F)F)c3)cc21`: the EC50 on Progesterone receptor [1] was > 10000 nM. The compound also showed an IC50 on Progesterone receptor [3] of 100 nM. On to `CC1(C)OC(S)=Nc2ccc(-c3csc(C#N)c3)cc21`, for which the figures for the ED50 in assay [4] and in assay [5] were 0.22 mg/kg and 0.62 mg/kg, respectively. Compound `CC1(C)OC(=S)Nc2ccc(-c3cccc([N+](=O)[O-])c3)cc21` registered an EC50 on Progesterone receptor [1] of 1.1 nM. This counts as single-digit nanomolar. `CC1(C)OC(=S)Nc2ccc(-c3cc(F)cc(C#N)c3)cc21` had an EC50 on Progesterone receptor [1] of 0.6 nM. On the same count and under the same terms, then `CC1(C)OC(=S)Nc2ccc(-c3cc(F)cc(Br)c3)cc21`, with 1.7 nM; and `CC1(C)OC(=S)Nc2ccc(-c3cc(Cl)cc(Cl)c3)cc21`, with 26.5 nM. With `CC1OC(=S)Nc2ccc(-c3cccc(F)c3)cc21` (configuration not stated), on Progesterone receptor [1], the EC50 came out at 300 nM.

`CN1C(=S)OC(C)(C)c2cc(-c3cccc(Br)c3)ccc21`: the IC50 at Progesterone receptor [2] amounted to 114 nM. The EC50 at Progesterone receptor [1] was > 10000 nM. On Progesterone receptor [1], `CC1(C)OC(=S)Nc2ccc(-c3ccc(F)c(Cl)c3)cc21` had an EC50 of 79.5 nM. Still for that read-out and setting: then `N#Cc1cccc(-c2ccc3c(c2)C2(CCCCC2)OC(=S)N3)c1`, with 2.5 nM; and `CC1(C)OC(=S)Nc2ccc(-c3cccc(C#N)c3)cc21`, with 0.4 nM.

`COc1cc(F)cc(-c2ccc3c(c2)C(C)(C)OC(=S)N3)c1` returned an EC50 at Progesterone receptor [1] of 2.6 nM. Compared with the last compound, the EC50 is about 6.5-fold higher. For the compound `CC1(C)OC(=S)Nc2ccc(-c3cccc(F)c3F)cc21`, the EC50 at Progesterone receptor [1] was 1.5 nM. For `CC1(C)OC(S)=Nc2ccc(-c3ccc(C#N)s3)cc21`, the 50% effect level in assay [5] (ED50) was put at a dose of 1.5 mg/kg. The compound `CC1(C)OC(=S)Nc2ccc(-c3cccc(Cl)c3)cc21` displayed an EC50 at Progesterone receptor [1] of 1.7 nM. Same read-out and setting: next, `SC1=Nc2ccc(-c3cccc(Cl)c3)cc2C(Cc2ccccc2)(Cc2ccccc2)O1`: 1000 nM; `CC1(C)OC(=S)Nc2c(F)cc(-c3cc(F)cc(C#N)c3)cc21`: 1000 nM.

Consider `Cc1cc(Br)cc(-c2ccc3c(c2)C(C)(C)OC(=S)N3)c1`, for which, on Progesterone receptor [1], the EC50 is > 10000 nM. On Progesterone receptor [3], the IC50 is 100 nM. Regarding `CC1(C)OC(=S)Nc2ccc(-c3ccc(C#N)s3)cc21`, the EC50 at Progesterone receptor [1] stood at 0.7 nM.

For the compound `CC1(C)OC(=S)Nc2ccc(-c3cccc(Br)c3)cc21`, the EC50 on Progesterone receptor [1] was 2.5 nM. `CC1(C)OC(S)=Nc2ccc(-c3cc(F)cc(C#N)c3)cc21`: the 50% effect level in assay [5] (ED50) was put at a dose of 0.1 mg/kg. `CC1(C)OC(=S)Nc2ccc(-c3cccc(F)c3)cc21`: on Progesterone receptor [1], the concentration giving a half-maximal response (EC50) came to 1 nM. On the same count and under the same terms, next, `CC1(C)OC(=S)Nc2ccc(-c3coc(C#N)c3)cc21`: 1.2 nM; `COc1cccc(-c2ccc3c(c2)C(C)(C)OC(=S)N3)c1`: 7.2 nM; `C=CCC1(C)OC(=S)Nc2ccc(-c3cccc(Cl)c3)cc21` (configuration not stated): 0.3 nM.
